# Results reported in patent US6667387B1, “HCV core peptides” (priority 1992, dated 2003).
# Ends that are not written are not given here.
# Key:
# [1] = system: antibodies in sera from HCV-seropositive donors; test: ELISA with HCV antibody-positive sera (biotinylated peptides on streptavidin- or avidin-coated plates, unbiotinylated peptides coated directly); assay type: binding, human; settings: for PEPTIDE ELISA (O.D.): Table 12, biotinylated 20-mers
# Outline: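 Read-out is OD at 450 nm after HRP goat anti-human Ig and TMB development, following 1 h at 37° C. with seropositive or negative sera diluted 1:100 (or 20-fold). Antigen was either unbiotinylated peptide adsorbed on plastic (pH 9.6 carbonate, 2–5 or 3 μg/ml) or biotinylated peptide at 1 μg/ml captured on streptavidin-coated wells, with casein blocking.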
# [2] = ELISA with seronegative / negative control sera (specificity); assay type: binding, human
# Outline: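 Specificity readout is OD at 450 nm (HRP goat anti-human Ig, TMB/H2O2, sulfuric acid stop), with ≥0.250 counted positive. Seronegative donor sera (typically 1:100, 1 h, 37° C) were applied to casein-blocked wells coated with peptide directly or via streptavidin capture of biotinylated peptide.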
sequence,measurement,setting,value
PQRKTKRNTNRRPQDVKFPG,optical density (450 nm),"[1]; Table 4C, serum 8241, 20-fold dilution",0.545
same,optical density (450 nm),"[1]; Table 4C, serum 8242, 20-fold dilution",2.415
same,optical density (450 nm),"[1]; Table 4C, serum 8243, 20-fold dilution",2.306
same,optical density (450 nm),"[1]; Table 4C, serum 8247, 20-fold dilution",1.975
same,optical density (450 nm),"[1]; Table 4C, serum 8250, 20-fold dilution",0.357
same,optical density (450 nm),"[1]; Table 4C, serum 8271, 20-fold dilution",1.284
same,optical density (450 nm),"[1]; Table 4C, serum 8273, 20-fold dilution",2.769
same,optical density (450 nm),"[1]; Table 4C, serum 8274, 20-fold dilution",2.943
same,optical density (450 nm),"[1]; Table 4C, serum 8275, 20-fold dilution",2.030
same,optical density (450 nm),"[1]; Table 4C, serum 8276, 20-fold dilution",2.348
same,optical density (450 nm),"[1]; Table 4C, serum 8277, 20-fold dilution",2.572
same,optical density (450 nm),"[1]; Table 4C, serum 8278, 20-fold dilution",2.022
same,optical density (450 nm),"[1]; Table 5, sample 8242 (positive), peptide concentration 0.01 micrograms per milliliter, listed as HCV peptide II",1.196
same,optical density (450 nm),"[1]; Table 5, sample 8242 (positive), peptide concentration 0.03 micrograms per milliliter, listed as HCV peptide II",1.481
same,optical density (450 nm),"[1]; Table 5, sample 8242 (positive), peptide concentration 0.1 micrograms per milliliter, listed as HCV peptide II",1.399
same,optical density (450 nm),"[1]; Table 5, sample 8242 (positive), peptide concentration 0.3 micrograms per milliliter, listed as HCV peptide II",1.365
same,optical density (450 nm),"[1]; Table 5, sample 8242 (positive), peptide concentration 1.0 micrograms per milliliter, listed as HCV peptide II",1.368
same,optical density (450 nm),"[1]; Table 5, sample 8242 (positive), peptide concentration 3.0 micrograms per milliliter, listed as HCV peptide II",1.427
same,optical density (450 nm),"[1]; Table 5, sample 8243 (positive), peptide concentration 0.01 micrograms per milliliter, listed as HCV peptide II",1.088
same,optical density (450 nm),"[1]; Table 5, sample 8243 (positive), peptide concentration 0.03 micrograms per milliliter, listed as HCV peptide II",1.597
same,optical density (450 nm),"[1]; Table 5, sample 8243 (positive), peptide concentration 0.1 micrograms per milliliter, listed as HCV peptide II",1.639
same,optical density (450 nm),"[1]; Table 5, sample 8243 (positive), peptide concentration 0.3 micrograms per milliliter, listed as HCV peptide II",1.608
same,optical density (450 nm),"[1]; Table 5, sample 8243 (positive), peptide concentration 1.0 micrograms per milliliter, listed as HCV peptide II",1.652
same,optical density (450 nm),"[1]; Table 5, sample 8243 (positive), peptide concentration 3.0 micrograms per milliliter, listed as HCV peptide II",1.668
same,optical density (450 nm),"[1]; Table 5, sample 8318 (positive), peptide concentration 0.01 micrograms per milliliter, listed as HCV peptide II",2.002
same,optical density (450 nm),"[1]; Table 5, sample 8318 (positive), peptide concentration 0.03 micrograms per milliliter, listed as HCV peptide II",2.181
same,optical density (450 nm),"[1]; Table 5, sample 8318 (positive), peptide concentration 0.1 micrograms per milliliter, listed as HCV peptide II",2.001
same,optical density (450 nm),"[1]; Table 5, sample 8318 (positive), peptide concentration 0.3 micrograms per milliliter, listed as HCV peptide II",1.958
same,optical density (450 nm),"[1]; Table 5, sample 8318 (positive), peptide concentration 1.0 micrograms per milliliter, listed as HCV peptide II",1.993
same,optical density (450 nm),"[1]; Table 5, sample 8318 (positive), peptide concentration 3.0 micrograms per milliliter, listed as HCV peptide II",2.016
same,optical density (450 nm),"[1]; Table 5, sample 8320 (positive), peptide concentration 0.01 micrograms per milliliter, listed as HCV peptide II",2.519
same,optical density (450 nm),"[1]; Table 5, sample 8320 (positive), peptide concentration 0.03 micrograms per milliliter, listed as HCV peptide II",2.757
same,optical density (450 nm),"[1]; Table 5, sample 8320 (positive), peptide concentration 0.1 micrograms per milliliter, listed as HCV peptide II",2.718
same,optical density (450 nm),"[1]; Table 5, sample 8320 (positive), peptide concentration 0.3 micrograms per milliliter, listed as HCV peptide II",2.684
same,optical density (450 nm),"[1]; Table 5, sample 8320 (positive), peptide concentration 1.0 micrograms per milliliter, listed as HCV peptide II",2.684
same,optical density (450 nm),"[1]; Table 5, sample 8320 (positive), peptide concentration 3.0 micrograms per milliliter, listed as HCV peptide II",2.718
same,optical density (450 nm),"[1]; Table 8, serum 8243 (HCV), Avidin",1.430
same,optical density (450 nm),"[1]; Table 8, serum 8247 (HCV), Avidin",1.356
same,optical density (450 nm),"[1]; Table 8, serum 8248 (HCV), Avidin",2.287
same,optical density (450 nm),"[1]; Table 8, serum 8269 (HCV), Avidin",1.213
same,optical density (450 nm),"[1]; Table 8, serum 8273 (HCV), Avidin",2.017
same,optical density (450 nm),"[1]; Table 8, serum 8278 (HCV), Avidin",1.878
same,optical density (450 nm),"[1]; Table 8, serum 8285 (HCV), Avidin",1.592
same,optical density (450 nm),"[1]; Table 8, serum 8290 (HCV), Avidin",0.060
same,optical density (450 nm),"[1]; Table 8, serum 8291 (HCV), Avidin",1.539
same,PEPTIDE ELISA (O.D.),[1]; serum 0843,2.306
same,PEPTIDE ELISA (O.D.),[1]; serum 8240,2.441
same,PEPTIDE ELISA (O.D.),[1]; serum 8241,0.545
same,PEPTIDE ELISA (O.D.),[1]; serum 8242,2.415
same,PEPTIDE ELISA (O.D.),[1]; serum 8332,1.977
same,PEPTIDE ELISA (O.D.),[1]; serum 8339,2.030
same,PEPTIDE ELISA (O.D.),[1]; serum 8350,1.982
same,PEPTIDE ELISA (O.D.),[1]; serum 8377,2.181
same,PEPTIDE ELISA (O.D.),[1]; serum 8378,2.140
same,PEPTIDE ELISA (O.D.),[1]; serum 8388,2.463
same,optical density (450 nm),"[2]; Table 4C, negative serum",0.070
same,optical density (450 nm),"[2]; Table 5, sample 1747 (negative), peptide concentration 0.01 micrograms per milliliter, listed as HCV peptide II",0.045
same,optical density (450 nm),"[2]; Table 5, sample 1747 (negative), peptide concentration 0.03 micrograms per milliliter, listed as HCV peptide II",0.045
same,optical density (450 nm),"[2]; Table 5, sample 1747 (negative), peptide concentration 0.1 micrograms per milliliter, listed as HCV peptide II",0.045
same,optical density (450 nm),"[2]; Table 5, sample 1747 (negative), peptide concentration 0.3 micrograms per milliliter, listed as HCV peptide II",0.046
same,optical density (450 nm),"[2]; Table 5, sample 1747 (negative), peptide concentration 1.0 micrograms per milliliter, listed as HCV peptide II",0.071
same,optical density (450 nm),"[2]; Table 5, sample 1747 (negative), peptide concentration 3.0 micrograms per milliliter, listed as HCV peptide II",0.064
same,optical density (450 nm),"[2]; Table 5, sample 1781 (negative), peptide concentration 0.01 micrograms per milliliter, listed as HCV peptide II",0.053
same,optical density (450 nm),"[2]; Table 5, sample 1781 (negative), peptide concentration 0.03 micrograms per milliliter, listed as HCV peptide II",0.049
same,optical density (450 nm),"[2]; Table 5, sample 1781 (negative), peptide concentration 0.1 micrograms per milliliter, listed as HCV peptide II",0.047
same,optical density (450 nm),"[2]; Table 5, sample 1781 (negative), peptide concentration 0.3 micrograms per milliliter, listed as HCV peptide II",0.051
same,optical density (450 nm),"[2]; Table 5, sample 1781 (negative), peptide concentration 1.0 micrograms per milliliter, listed as HCV peptide II",0.055
same,optical density (450 nm),"[2]; Table 5, sample 1781 (negative), peptide concentration 3.0 micrograms per milliliter, listed as HCV peptide II",0.057
same,optical density (450 nm),"[2]; Table 8, serum 1782 (blood donor), Avidin",0.057
same,optical density (450 nm),"[2]; Table 8, serum 1784 (blood donor), Avidin",0.045
same,optical density (450 nm),"[2]; Table 8, serum 1785 (blood donor), Avidin",0.045
same,optical density (450 nm),"[2]; Table 8, serum 1794 (blood donor), Avidin",0.153
